Measurements reported in ChEMBL document CHEMBL5625248, “Identification of unique indolylcyanoethylenyl sulfonylanilines as novel structural scaffolds of potential antibacterial agents” (Eur J Med Chem, 2023).
In brackets after ≈: the same amount, converted by molar mass.

How the values were obtained:
Assay type in all cases: functional
Pseudomonas aeruginosa [1] = assay: Antibacterial activity against Pseudomonas aeruginosa ATCC 27853 assessed as inhibition of bacterial growth incubated for 18 hrs by two fold broth microdilution assay
Staphylococcus aureus [2] = assay: Antibacterial activity against methicilin-resistant Staphylococcus aureus N315 assessed as inhibition of bacterial growth incubated for 18 hrs by two fold broth microdilution assay
Enterococcus faecalis = assay: Antibacterial activity against Enterococcus faecalis assessed as inhibition of bacterial growth incubated for 18 hrs by two fold broth microdilution assay
Escherichia coli [3] = assay: Antibacterial activity against Escherichia coli assessed as inhibition of bacterial growth incubated for 18 hrs by two fold broth microdilution assay
Staphylococcus aureus [4] = assay: Antibacterial activity against Staphylococcus aureus ATCC 29213 assessed as inhibition of bacterial growth incubated for 18 hrs by two fold broth microdilution assay
Acinetobacter baumannii = assay: Antibacterial activity against Acinetobacter baumannii assessed as inhibition of bacterial growth incubated for 18 hrs by two fold broth microdilution assay
Pseudomonas aeruginosa [5] = assay: Antibacterial activity against Pseudomonas aeruginosa assessed as inhibition of bacterial growth incubated for 18 hrs by two fold broth microdilution assay
Staphylococcus aureus [6] = assay: Antibacterial activity against Staphylococcus aureus assessed as inhibition of bacterial growth incubated for 18 hrs by two fold broth microdilution assay
Klebsiella pneumoniae = assay: Antibacterial activity against Klebsiella pneumoniae assessed as inhibition of bacterial growth incubated for 18 hrs by two fold broth microdilution assay
Escherichia coli [7] = assay: Antibacterial activity against Escherichia coli ATCC 25922 assessed as inhibition of bacterial growth incubated for 18 hrs by two fold broth microdilution assay
Staphylococcus aureus [8] = assay: Antibacterial activity against Staphylococcus aureus ATCC 25923 assessed as inhibition of bacterial growth incubated for 18 hrs by two fold broth microdilution assay

SMILES | MIC (Pseudomonas aeruginosa [1]) | MIC (Staphylococcus aureus [2]) | MIC (Enterococcus faecalis) | MIC (Escherichia coli [3]) | MIC (Staphylococcus aureus [4]) | MIC (Acinetobacter baumannii) | MIC (Pseudomonas aeruginosa [5]) | MIC (Staphylococcus aureus [6]) | MIC (Klebsiella pneumoniae) | MIC (Escherichia coli [7]) | MIC (Staphylococcus aureus [8])
CCCCCCCCn1cc(/C=C(\C#N)S(=O)(=O)c2ccc(NC(C)=O)cc2)c2ccccc21 | 16 mg/L (≈ 33.5 µM) | 256 mg/L (≈ 536 µM) | 16 mg/L (≈ 33.5 µM) | 256 mg/L (≈ 536 µM) | 16 mg/L (≈ 33.5 µM) | 8 mg/L (≈ 16.7 µM) | 64 mg/L (≈ 134 µM) | 8 mg/L (≈ 16.7 µM) | 4 mg/L (≈ 8.37 µM) | 32 mg/L (≈ 67 µM) | 4 mg/L (≈ 8.37 µM)
CC(=O)Nc1ccc(S(=O)(=O)/C(C#N)=C/c2cn(Cc3ccccc3F)c3ccccc23)cc1 | 16 mg/L (≈ 33.8 µM) | 256 mg/L (≈ 541 µM) | 8 mg/L (≈ 16.9 µM) | 128 mg/L (≈ 270 µM) | 4 mg/L (≈ 8.45 µM) | 16 mg/L (≈ 33.8 µM) | 64 mg/L (≈ 135 µM) | 128 mg/L (≈ 270 µM) | 256 mg/L (≈ 541 µM) | 64 mg/L (≈ 135 µM) | 4 mg/L (≈ 8.45 µM)
N#C/C(=C\c1cn(Cc2ccc(Cl)c(Cl)c2)c2ccccc12)S(=O)(=O)c1ccc(N)cc1 | 64 mg/L (≈ 133 µM) | 16 mg/L (≈ 33.2 µM) | 128 mg/L (≈ 265 µM) | 256 mg/L (≈ 531 µM) | 4 mg/L (≈ 8.29 µM) | 4 mg/L (≈ 8.29 µM) | 31 mg/L (≈ 64.3 µM) | 128 mg/L (≈ 265 µM) | 4 mg/L (≈ 8.29 µM) | 0.5 mg/L (≈ 1.04 µM) | 16 mg/L (≈ 33.2 µM)
Cn1cc(/C=C(\C#N)S(=O)(=O)c2ccc(N)cc2)c2ccccc21 | 64 mg/L (≈ 190 µM) | 128 mg/L (≈ 379 µM) | 256 mg/L (≈ 759 µM) | 64 mg/L (≈ 190 µM) | 32 mg/L (≈ 94.8 µM) | 2 mg/L (≈ 5.93 µM) | 64 mg/L (≈ 190 µM) | 256 mg/L (≈ 759 µM) | 4 mg/L (≈ 11.9 µM) | 2 mg/L (≈ 5.93 µM) | 128 mg/L (≈ 379 µM)
N#C/C(=C\c1c[nH]c2cccc(Cl)c12)S(=O)(=O)c1ccc(N)cc1 | 64 mg/L (≈ 179 µM) | 64 mg/L (≈ 179 µM) | 32 mg/L (≈ 89.4 µM) | 256 mg/L (≈ 715 µM) | 32 mg/L (≈ 89.4 µM) | 16 mg/L (≈ 44.7 µM) | 64 mg/L (≈ 179 µM) | 32 mg/L (≈ 89.4 µM) | 4 mg/L (≈ 11.2 µM) | 64 mg/L (≈ 179 µM) | 128 mg/L (≈ 358 µM)
CCCCCCCCn1cc(/C=C(\C#N)S(=O)(=O)c2ccc(N)cc2)c2ccccc21 | 32 mg/L (≈ 73.5 µM) | 256 mg/L (≈ 588 µM) | 32 mg/L (≈ 73.5 µM) | 128 mg/L (≈ 294 µM) | 16 mg/L (≈ 36.7 µM) | 32 mg/L (≈ 73.5 µM) | 64 mg/L (≈ 147 µM) | 128 mg/L (≈ 294 µM) | 4 mg/L (≈ 9.18 µM) | 64 mg/L (≈ 147 µM) | 32 mg/L (≈ 73.5 µM)
CC(=O)Nc1ccc(S(=O)(=O)/C(C#N)=C/c2c[nH]c3ccccc23)cc1 | 1 mg/L (≈ 2.74 µM) | 8 mg/L (≈ 21.9 µM) | 2 mg/L (≈ 5.47 µM) | 64 mg/L (≈ 175 µM) | 8 mg/L (≈ 21.9 µM) | 0.5 mg/L (≈ 1.37 µM) | 32 mg/L (≈ 87.6 µM) | 256 mg/L (≈ 701 µM) | 16 mg/L (≈ 43.8 µM) | 4 mg/L (≈ 10.9 µM) | 8 mg/L (≈ 21.9 µM)
CC(=O)Nc1ccc(S(=O)(=O)/C(C#N)=C/c2c[nH]c3cc(F)ccc23)cc1 | 8 mg/L (≈ 20.9 µM) | 64 mg/L (≈ 167 µM) | 32 mg/L (≈ 83.5 µM) | 128 mg/L (≈ 334 µM) | 32 mg/L (≈ 83.5 µM) | 16 mg/L (≈ 41.7 µM) | 64 mg/L (≈ 167 µM) | 32 mg/L (≈ 83.5 µM) | 128 mg/L (≈ 334 µM) | 8 mg/L (≈ 20.9 µM) | 128 mg/L (≈ 334 µM)
C#CCn1cc(/C=C(\C#N)S(=O)(=O)c2ccc(N)cc2)c2ccccc21 | 4 mg/L (≈ 11.1 µM) | 2 mg/L (≈ 5.53 µM) | 2 mg/L (≈ 5.53 µM) | 128 mg/L (≈ 354 µM) | 2 mg/L (≈ 5.53 µM) | 0.5 mg/L (≈ 1.38 µM) | 0.5 mg/L (≈ 1.38 µM) | 4 mg/L (≈ 11.1 µM) | 8 mg/L (≈ 22.1 µM) | 256 mg/L (≈ 708 µM) | 16 mg/L (≈ 44.3 µM)
CC(=O)Nc1ccc(S(=O)(=O)/C(C#N)=C/c2cn(CC3CCCCC3)c3ccccc23)cc1 | 2 mg/L (≈ 4.33 µM) | 64 mg/L (≈ 139 µM) | 32 mg/L (≈ 69.3 µM) | 256 mg/L (≈ 555 µM) | 64 mg/L (≈ 139 µM) | 32 mg/L (≈ 69.3 µM) | 64 mg/L (≈ 139 µM) | 32 mg/L (≈ 69.3 µM) | 128 mg/L (≈ 277 µM) | 32 mg/L (≈ 69.3 µM) | 64 mg/L (≈ 139 µM)
CCCCCn1cc(/C=C(\C#N)S(=O)(=O)c2ccc(N)cc2)c2ccccc21 | 64 mg/L (≈ 163 µM) | 256 mg/L (≈ 651 µM) | 128 mg/L (≈ 325 µM) | 8 mg/L (≈ 20.3 µM) | 16 mg/L (≈ 40.7 µM) | 32 mg/L (≈ 81.3 µM) | 64 mg/L (≈ 163 µM) | 256 mg/L (≈ 651 µM) | 8 mg/L (≈ 20.3 µM) | 16 mg/L (≈ 40.7 µM) | 128 mg/L (≈ 325 µM)
CC(=O)Nc1ccc(S(=O)(=O)/C(C#N)=C/c2cn(Cc3cccc(F)c3)c3ccccc23)cc1 | 16 mg/L (≈ 33.8 µM) | 256 mg/L (≈ 541 µM) | 32 mg/L (≈ 67.6 µM) | 128 mg/L (≈ 270 µM) | 16 mg/L (≈ 33.8 µM) | 16 mg/L (≈ 33.8 µM) | 64 mg/L (≈ 135 µM) | 64 mg/L (≈ 135 µM) | 256 mg/L (≈ 541 µM) | 64 mg/L (≈ 135 µM) | 16 mg/L (≈ 33.8 µM)
CC(=O)Nc1ccc(S(=O)(=O)/C(C#N)=C/c2c[nH]c3ccc([N+](=O)[O-])cc23)cc1 | 32 mg/L (≈ 78 µM) | 64 mg/L (≈ 156 µM) | 32 mg/L (≈ 78 µM) | 64 mg/L (≈ 156 µM) | 32 mg/L (≈ 78 µM) | 8 mg/L (≈ 19.5 µM) | 64 mg/L (≈ 156 µM) | 32 mg/L (≈ 78 µM) | 64 mg/L (≈ 156 µM) | 64 mg/L (≈ 156 µM) | 128 mg/L (≈ 312 µM)
